Measured values: patent US4272541A, “7,8 and 7-8 Substituted 4,5α-epoxymorphinan-6-one compounds, and methods of treating pain and drug dependence with them” (Miles Laboratories, Inc., priority 1979, dated 1981)

Legend:
[1] = tested on: Anti-Peristaltic Effects Of Morphine; experiment: Charcoal meal test, antagonist test (ability to antagonize the anti-peristaltic effects of morphine); assay type: in vivo, mice (albino females, CFW strain); settings: for Percent Reversal (S.E.) Of Anti-Peristaltic Effects Of Morphine: morphine 8 mg/kg, naloxone 10 mg/kg = 100%; for antagonist properties: in words, charcoal meal tests
Description: (§1) The agonist and antagonist effects of TR-5088, reference compound TR-5128 and prior art compound 17-cyclopropylmethyl-4,5α-epoxy-3-hydroxymorphinan-6-one (TR-5118) were determined in mice by a modified procedure of Rodriguez and Villarreal (report on the 36th Annual Scientific Meeting Committee on the Problems of Drug Dependance, Mar. 10-14, 1974, Mexico City, D.F.).
(§2) Subjects and Procedure for Measuring Gastrointestinal Peristaltic Activity. The mice used were albino females of the CFW strain, weighing between 20 and 25 grams; ten animals per dose were used for each compound tested in each experiment except 20 animals were used in the tests of Compound 5088. Gastrointestinal peristaltic activity was measured using a modification of the charcoal meal method described by Macht and Baba-Gose (1931). Mice were deprived of food 18 hours before the administration of the charcoal meal. […] This meal consisted of an aqueous suspension of 5% powdered tragacanth and 5% animal charcoal and was freshly made for each experiment. The charcoal meal was administered by gastric intubation, 0.25 ml per mouse. The animals were sacrificed by cervical dislocation. After the sacrifice, the whole gastrointestinal tract was rapidly removed and freed of epiploon. Then the entire length of intestine was hung upon a small hook at the level of the pylorus. In order to standardize the tension of the intestine, a 5 g weight was hung at the level of the ileocecal valve. Gastrointestinal peristaltic activity was then determined by measuring the distance the charcoal traveled from the pylorus.
(§3) Drugs. Morphine hydrochloride, naloxone hydrochloride or test compounds were each dissolved in distilled water with their concentrations adjusted so that the volume of injection was 10 ml/kg. Doses are expressed in terms of the salts.
Determination of Ability of Test Compounds to Antagonize the Anti-Peristaltic Effects of Morphine (Antagonist test).
Morphine (8 mg/kg) was given s.c. at time 0, charcoal meal was given p.o. at time 15 min, naloxone or test compound was given s.c. at 30 min, and the animals were sacrificed at time 45 min. Naloxone is the standard of reference and its maximum effect (at 10 mg/kg) to antagonize the antiperistaltic effects of morphine is assigned the value of 100%; test compounds are expressed as % of maximum naloxone antagonism.

[2] = Telford et al. 1961; Yeh et al. 1976; cited from earlier work
Peristalsis = experiment: Charcoal meal test, agonist test (ability of test compound to directly inhibit peristalsis); assay type: in vivo, mice (albino females, CFW strain); settings: for inhibition at 0.01 mg/kg / inhibition at 0.1 mg/kg / inhibition at 1 mg/kg / inhibition at 10 mg/kg / inhibition at 100 mg/kg: Mus musculus, sc, morphine 8 mg/kg = 100%, read-out: Percent Inhibition of Peristalsis; for inhibition at 0.01 mg/kg: 0.01 mg/kg s.c.; for inhibition at 0.1 mg/kg: 0.1 mg/kg s.c.; for inhibition at 1 mg/kg: 1.0 mg/kg s.c.; for inhibition at 10 mg/kg: 10.0 mg/kg s.c.; for inhibition at 100 mg/kg: 100.0 mg/kg s.c.; for inhibition of peristalsis / constipating side effect: in words, analysis of variance, comparison of compounds
Description: as §1, §2, §3
Morphine (8 mg/kg), test compound, or saline control was administered subcutaneously (s.c.), at time 0, the charcoal meal was administered by mouth (p.o.) at time 15 min, water (10 ml/kg) was administered s.c. at time 30 min, and the animals were sacrificed at time 45 min. The saline control value represents 0% inhibition and the morphine value represents 100% inhibition. All test compounds had values between saline and morphine, and results are expressed as % inhibition compared to morphine.
The data were subjected to analysis of variance. Also the Scheffe test, a statistical test that allows for multiple comparison, was performed.

writhing = experiment: Acetic acid mouse writhing test (analgesic effects); assay type: in vivo, mice (male CD-1); settings: for ED50: Mus musculus, sc, 0.25 h, mice, subcutaneous, acetic acid i.p. 15 minutes post drug, Table I, read-out: ED50
Description: (A) Analgesic effects upon mice (acetic acid writhing test).
TEST A. ACETIC ACID MOUSE WRITHING TEST
The analgesic effects of test compounds were determined in mice by use of the acetic acid writhing test described by B. J. R. Whittle, Brit. J. Pharmacol., 22:246 (1964). In this test at least three groups of five male CD-1 mice (18-22 g) each were given subcutaneous doses of the test drug dissolved in either distilled water or distilled water acidified with HCl depending on the solubility of the compound. In all cases, 0.4 milliliter of a 0.5% V/V acetic acid in distilled water solution was administered intraperitoneally 15 minutes post drug. The number of writhes in a 20 min. interval beginning 5 minutes after the acetic acid injection were determined and compared with the number of writhes in control groups which had received only acetic acid.
Percent inhibition of writhing was calculated as: [formula]
The ED50 dose, i.e., the dose required to reduce the number of writhes by 50%, was determined graphically from a plot of % inhibition as a probit versus log dose. Confidence limits of 95% were calculated on the basis of those results falling in the range 16-84% inhibition. See Litchfield, J. T. and Wilcoxon, F., J. Pharmacol. Exp. Ther., 96, 99-113, (1949).

morphine effect = experiment: Narcotic antagonist activity, modified rat tail flick test; assay type: in vivo, rats (male albino Wistar); settings: Rattus norvegicus, ip; rats, test drug i.p. 10 minutes before ED80 dose of morphine s.c.; Table I; read-out: AD50 (the source's name)
Description: (B) Narcotic antagonist activity in rats (modified rat tail flick test).
TEST B. EVALUATION OF NARCOTIC ANTAGONIST ACTIVITY
The narcotic antagonist effects of test compounds were determined by a modification of the rat tail flick procedure of Harris and Pierson (J. Pharmacol. Exp. Ther. 143,141 [1964]).
Male albino Wistar rats (100-120 g) were used for this study. A rat's tail is so placed so as to cover a photocell. Heat is applied by a lamp in a reflector with a timer being connected to the lamp and photocell so that the timer goes on when the light is turned on and is turned off when the photocell is uncovered. A rheostat, incorporated into a heating lamp is used to adjust the intensity of the light falling on the tail of the rat such that the rat's control reaction time is from two to four seconds. Animals with a control reaction time outside this range are rejected. The rheostat adjustment is made only if a significant proportion (more than 2 out of every 10 rats) of the reaction times are outside the range of two to four seconds. Groups of five rats were used each time, and two control times were determined at 60 and 30 minutes prior to subcutaneous injection of the drug.
Thirty minutes after the last control run the test drug was given intraperitoneally. This was followed ten minutes later by an ED80 dose of morphine subcutaneously. The animals were retested at 20 minutes after the morphine injection. Control animals were given vehicle and morphine only. The data were calculated as follows: [formula]
The data were plotted on log-probit paper and AD50 values, i.e., the dose required to inhibit the morphine effect by 50% within 95% confidence limits, were determined by the method of Litchfield and Wilcoxon.

[3] = Gates and Montzka 1964; cited from earlier work

C=CCN1CC[C@]23c4c5ccc(O)c4O[C@H]2C(=O)CC[C@@]3(O)[C@H]1C5 [Naloxone]
Percent Reversal (S.E.) Of Anti-Peristaltic Effects Of Morphine ([1]; 0.01 mg/kg s.c.): 14.5(±3.0) % | Percent Reversal (S.E.) Of Anti-Peristaltic Effects Of Morphine ([1]; 0.10 mg/kg s.c.): 39.1(±4.2) % | Percent Reversal (S.E.) Of Anti-Peristaltic Effects Of Morphine ([1]; 1.0 mg/kg s.c.): 69.8(±8.0) % | Percent Reversal (S.E.) Of Anti-Peristaltic Effects Of Morphine ([1]; 10.0 mg/kg s.c.): 100.0(±5.9) %

C=CCN1CC[C@]23c4c5ccc(OC)c4O[C@H]2C(=O)CC[C@H]3[C@H]1C5 [7,8-dihydro-N-allylnorcodeinone, 17-allyl-4,5α-epoxy-3-methoxymorphinan-6-one]
analgesic properties [2]: weak analgesic properties

O=C1CC[C@H]2[C@H]3Cc4ccc(O)c5c4[C@@]2(CCN3CC2CCC2)[C@H]1O5 [TR-5128, 17-Cyclobutylmethyl-4,5α-epoxy-3-hydroxymorphinan-6-one]
inhibition at 0.01 mg/kg (Peristalsis): 17.5% | inhibition at 0.1 mg/kg (Peristalsis): 35.6% | inhibition at 1 mg/kg (Peristalsis): 50.7% | inhibition at 10 mg/kg (Peristalsis): 76.3% | inhibition at 100 mg/kg (Peristalsis): 84.2% | ED50 (writhing): 0.07 mg/kg | Percent Reversal (S.E.) Of Anti-Peristaltic Effects Of Morphine ([1]; 0.01 mg/kg s.c.): 0.0% | Percent Reversal (S.E.) Of Anti-Peristaltic Effects Of Morphine ([1]; 0.10 mg/kg s.c.): 8.3(±4.6) % | Percent Reversal (S.E.) Of Anti-Peristaltic Effects Of Morphine ([1]; 1.0 mg/kg s.c.): 13.5(±7.3) % | Percent Reversal (S.E.) Of Anti-Peristaltic Effects Of Morphine ([1]; 10.0 mg/kg s.c.): 19.1(±5.8) % | Percent Reversal (S.E.) Of Anti-Peristaltic Effects Of Morphine ([1]; 31.0 mg/kg s.c.): 20.4(±5.3) % | antagonist properties [1]: so low an antagonist ability as to be ineffective in the practical sense | ED50 (morphine effect): 1.7 mg/kg

O=C1CC[C@H]2[C@H]3Cc4ccc(O)c5c4[C@@]2(CCN3CC2CC2)[C@H]1O5 [TR-5118, 17-cyclopropylmethyl-4,5α-epoxy-3-hydroxymorphinan-6-one]
inhibition at 0.01 mg/kg (Peristalsis): 24.7% | inhibition at 0.1 mg/kg (Peristalsis): 25.4% | inhibition at 1 mg/kg (Peristalsis): 40.8% | inhibition at 10 mg/kg (Peristalsis): 44.8% | inhibition at 100 mg/kg (Peristalsis): 47.1% | inhibition of peristalsis / constipating side effect (Peristalsis): inhibit peristalsis to a statistically significantly less degree than TR-5128 | ED50 (writhing): 1.34 mg/kg | narcotic antagonist activity [3]: had narcotic antagonist activity | Percent Reversal (S.E.) Of Anti-Peristaltic Effects Of Morphine ([1]; 3.1 mg/kg s.c.): 56.6(±8.0) % | Percent Reversal (S.E.) Of Anti-Peristaltic Effects Of Morphine ([1]; 31.0 mg/kg s.c.): 69.3(±6.4) % | antagonist properties [1]: mixed agonist side effects and antagonist properties | ED50 (morphine effect): 0.19 mg/kg

C[C@H]1CC(=O)[C@@H]2Oc3c(O)ccc4c3[C@@]23CCN(CC2CCC2)[C@H](C4)[C@H]13.Cl [TR-5088, 17-Cyclobutylmethyl-4,5α-epoxy-3-hydroxy-8β-methylmorphinan-6-one Hydrochloride]
inhibition at 0.01 mg/kg (Peristalsis): 13.5% | inhibition at 0.1 mg/kg (Peristalsis): 39.8% | inhibition at 1 mg/kg (Peristalsis): 50.7% | inhibition at 10 mg/kg (Peristalsis): 54% | inhibition at 100 mg/kg (Peristalsis): 63.5% | inhibition of peristalsis / constipating side effect (Peristalsis; Hydrochloride): inhibit peristalsis to a statistically significantly less degree than TR-5128 | inhibition of peristalsis / constipating side effect (Peristalsis; listed as 17-cyclobutylmethyl-4,5α-epoxy-3-hydroxy-8β-methylmorphinan-6-one, Hydrochloride): less side effects | ED50 (writhing): 0.67 mg/kg | analgesic activity (writhing; in words): especially effective analgesics | Percent Reversal (S.E.) Of Anti-Peristaltic Effects Of Morphine ([1]; 0.031 mg/kg s.c.): 12.4(±5.8) % | Percent Reversal (S.E.) Of Anti-Peristaltic Effects Of Morphine ([1]; 0.31 mg/kg s.c.): 27.7(±7.3) % | Percent Reversal (S.E.) Of Anti-Peristaltic Effects Of Morphine ([1]; 3.1 mg/kg s.c.): 54.6(±6.7) % | Percent Reversal (S.E.) Of Anti-Peristaltic Effects Of Morphine ([1]; 31.0 mg/kg s.c.): 44.7(±6.2) % | antagonist properties [1]: dramatically increased antagonist properties | ED50 (morphine effect): 1.9 mg/kg
